Test results: article PMC4317927 (Cancer Science, 2014)

B1: NF-D1 (NF-01F/NF-14D) (dsDNA)
DNA 1: AGTTGAGGGGACTTTCCCAGGCGACTCACTATAGGCGGTGTCTCGCTCGC
DNA 2: GGGAATGGTGTGGTGCCTATAGTGAGTCGCCTGGGAAAGTCCCCTCAACT

Key:
NF-κB (p52) = biological target: T1, NF-κB (p52) (Homo sapiens, UniProt Q00653); experiment: DSE-FRET DNA-binding
T1 sequence (Q00653 1-454 limits assumed): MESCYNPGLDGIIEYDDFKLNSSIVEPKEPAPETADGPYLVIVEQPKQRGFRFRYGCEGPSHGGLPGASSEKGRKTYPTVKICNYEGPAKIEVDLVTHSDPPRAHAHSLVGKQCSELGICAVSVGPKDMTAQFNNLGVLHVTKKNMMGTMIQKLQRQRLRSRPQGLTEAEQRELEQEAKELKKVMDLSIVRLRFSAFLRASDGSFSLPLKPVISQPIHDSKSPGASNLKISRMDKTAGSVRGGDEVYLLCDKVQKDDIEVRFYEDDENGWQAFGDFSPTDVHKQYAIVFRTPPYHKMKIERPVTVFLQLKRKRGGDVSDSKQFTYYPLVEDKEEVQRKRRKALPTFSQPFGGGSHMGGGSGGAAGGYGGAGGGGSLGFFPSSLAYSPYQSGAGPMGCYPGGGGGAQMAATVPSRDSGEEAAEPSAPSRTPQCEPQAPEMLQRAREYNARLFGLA

NF-κB (p50) = biological target: T2, NF-κB (p50) (Homo sapiens, UniProt P19838); experiment: DSE-FRET DNA-binding
T2 sequence (P19838 1-433 limits assumed): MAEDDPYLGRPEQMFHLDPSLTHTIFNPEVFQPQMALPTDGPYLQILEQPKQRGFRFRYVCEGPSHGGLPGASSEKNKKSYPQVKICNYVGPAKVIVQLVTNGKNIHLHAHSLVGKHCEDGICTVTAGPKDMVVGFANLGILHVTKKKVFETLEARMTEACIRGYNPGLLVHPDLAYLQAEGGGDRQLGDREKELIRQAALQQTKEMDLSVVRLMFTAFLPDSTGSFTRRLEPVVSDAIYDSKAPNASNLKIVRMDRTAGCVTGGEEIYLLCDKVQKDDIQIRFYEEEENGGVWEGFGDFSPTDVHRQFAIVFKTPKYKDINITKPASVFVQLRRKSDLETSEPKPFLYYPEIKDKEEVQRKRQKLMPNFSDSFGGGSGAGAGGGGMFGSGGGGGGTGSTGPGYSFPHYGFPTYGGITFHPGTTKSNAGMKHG

GST-NF-kB p50 = GST-NF-kB p50 (human, UniProt P19838 1-433); experiment: DSE-FRET

Molecule	IC50 (NF-κB (p52)) [µM]	IC50 (NF-κB (p50)) [µM]	apparent K (half saturation) (GST-NF-kB p50) [nM]
O=C(NC1=CC(=O)[C@H]2O[C@H]2[C@H]1O)c1ccccc1O [(−)-DHMEQ]	62.5	8.8	
Cc1cc(-c2ccc(/N=N/c3ccc4c(S(=O)(=O)O)cc(S(=O)(=O)O)c(N)c4c3O)c(C)c2)ccc1/N=N/c1ccc2c(S(=O)(=O)O)cc(S(=O)(=O)O)c(N)c2c1O [EB, Evans Blue]	12.8	12.9	
B1			~40
